Laboratory results as given in US8951560B2, “Isoflavone nanoparticles and use thereof” (DSM IP Assets B.V., priority 2005, dated 2015).

What was measured:
[1] = "swing" test (changing temperature test) of genistein-containing emulsions (Example 10); assay type: physicochemical; conditions: FIG. 7, comparative: emulsions with example 7 genistein after dry grinding in a Jet mill, 0.3%, 0.5%, 0.1%; ten sequences 5° C./43° C.
Method: To force the crystallization in a disperse system, a test was used in which the temperature is changed over a self-defined timeframe and in self-defined sequences. The test is called “swing” test (changing temperature test). The purpose of this test is to dissolve small particles at the higher temperature and to force re-crystallization at lower temperature. […] The following formulations were used for the “swing” test: […]
Oil- and water phase (o+w) were separately heated up to 70° C. (±5° C.) and were added together. The thickening agent (t) was added under moderate agitation. The mixture was homogenized for 30 seconds at 24,000 RPM by means of an Ultra-Turrax T25 homogenizer. The emulsion was cooled down slowly to 45° C.±5° C. under moderate stirring (horseshoe mixer, 120 RPM). At this temperature the pH value was adjusted to pH 6.5-7.0 by adding base (b). Genistein (g) was added to the still fluid emulsion and was incorporated by homogenizing again for 30 sec. 24,000 RPM by means of an Ultra-Turrax T25 homogenizer. The formulation was cooled down to 25° C.±5° C. under moderate stirring (horseshoe mixer, 120 RPM). […]
FIGS. 5 to 7 show the results of the “swing” test. […] The following genistein samples and concentrations were employed and the emulsions were measured immediately after preparation and after subjecting the samples to ten sequences of the “swing” test: […]

[2] = Genistein particle size by laser diffraction technique (Mastersizer 2000); assay type: physicochemical
[3] = Example 1, after homogenization (42 passes) and spray-drying, powder re-dispersed in water
[4] = Example 1, after homogenization (42 passes), 1500 bar, with starch sodium octenyl succinate, aqueous suspension
[5] = Example 1, before homogenization
[6] = Example 2, after homogenization (40 passes), 1500 bar, water only, no carrier
[7] = Example 2, after homogenization (42 passes) and spray-drying, powder re-dispersed in water
[8] = Example 2, after homogenization (42 passes), starch sodium octenyl succinate solution added after 40th pass
[9] = Example 2, before homogenization
[10] = Example 3, after homogenization (40 passes), 1500 bar, water only, no carrier
[11] = Example 3, after homogenization (42 passes) and spray-drying, powder re-dispersed in water
[12] = Example 3, after homogenization (42 passes), starch sodium octenyl succinate solution added after 40th pass
[13] = Example 3, before homogenization
[14] = Example 4, after homogenization (20 passes), 700 bar, water only, no carrier, about 20% solid
[15] = Example 4, before homogenization
[16] = Example 5, Table XI, after homogenization (42 passes) and spray-drying as headed, maltodextrin solution added after 40th pass
[17] = Example 5, Table XII, after homogenization (42 passes) and spray-drying, maltodextrin carrier, powder re-dispersed in water
[18] = Example 5, after homogenization (20 passes), 1500 bar, water only, no carrier
[19] = Example 5, before homogenization
[20] = Example 6, after homogenization (11 passages) in agitated bead mill, with starch sodium octenyl succinate
[21] = Example 6, before homogenization
[22] = Example 7, Table XIV, before milling and homogenization
[23] = Example 7, Table XV, before milling and homogenization
[24] = Example 7, after milling (Jet mill) and homogenization (12 times, 700 bar) with starch sodium octenyl succinate
[25] = Example 7, after milling, homogenization and spray drying

O=c1c(-c2ccc(O)cc2)coc2cc(O)cc(O)c12 [Genistein, 4′,5,7-trihydroxyisoflavone]
Particle size change in the "swing" test [1]: Huge crystals are formed
Average particle size D[3, 2] [2, 3]: 0.14 microns
Average particle size D[4, 3] [2, 3]: 0.83 microns
Genistein particle size D (v, 0.1) [2, 3]: 0.07 microns
Genistein particle size D (v, 0.5) [2, 3]: 0.16 microns
Genistein particle size D (v, 0.9) [2, 3]: 2.86 microns
Average particle size D[3, 2] [2, 4]: 0.15 microns
Average particle size D[4, 3] [2, 4]: 0.97 microns
Genistein particle size D (v, 0.1) [2, 4]: 0.07 microns
Genistein particle size D (v, 0.5) [2, 4]: 0.17 microns
Genistein particle size D (v, 0.9) [2, 4]: 3.65 microns
Average particle size D[3, 2] [2, 5]: 23.1 microns
Average particle size D[4, 3] [2, 5]: 48.5 microns
Genistein particle size D (v, 0.1) [2, 5]: 17.1 microns
Genistein particle size D (v, 0.5) [2, 5]: 41.9 microns
Genistein particle size D (v, 0.9) [2, 5]: 91.0 microns
Average particle size D[3, 2] [2, 6]: 0.14 microns
Average particle size D[4, 3] [2, 6]: 0.76 microns
Genistein particle size D (v, 0.1) [2, 6]: 0.07 microns
Genistein particle size D (v, 0.5) [2, 6]: 0.16 microns
Genistein particle size D (v, 0.9) [2, 6]: 2.42 microns
Average particle size D[3, 2] [2, 7]: 0.14 microns
Average particle size D[4, 3] [2, 7]: 0.55 microns
Genistein particle size D (v, 0.1) [2, 7]: 0.07 microns
Genistein particle size D (v, 0.5) [2, 7]: 0.15 microns
Genistein particle size D (v, 0.9) [2, 7]: 1.14 microns
Average particle size D[3, 2] [2, 8]: 0.14 microns
Average particle size D[4, 3] [2, 8]: 0.41 microns
Genistein particle size D (v, 0.1) [2, 8]: 0.07 microns
Genistein particle size D (v, 0.5) [2, 8]: 0.16 microns
Genistein particle size D (v, 0.9) [2, 8]: 0.93 microns
Average particle size D[3, 2] [2, 9]: 23.1 microns
Average particle size D[4, 3] [2, 9]: 48.5 microns
Genistein particle size D (v, 0.1) [2, 9]: 17.1 microns
Genistein particle size D (v, 0.5) [2, 9]: 41.9 microns
Genistein particle size D (v, 0.9) [2, 9]: 91.0 microns
Average particle size D[3, 2] [2, 10]: 0.14 microns
Average particle size D[4, 3] [2, 10]: 0.76 microns
Genistein particle size D (v, 0.1) [2, 10]: 0.07 microns
Genistein particle size D (v, 0.5) [2, 10]: 0.16 microns
Genistein particle size D (v, 0.9) [2, 10]: 2.00 microns
Average particle size D[3,2] (surface mean diameter) [2, 11]: 0.14 microns
Average particle size D[4, 3] [2, 11]: 0.43 microns
Genistein particle size D (v, 0.1) [2, 11]: 0.07 microns
Genistein particle size D (v, 0.5) [2, 11]: 0.16 microns
Genistein particle size D (v, 0.9) [2, 11]: 0.97 microns
Average particle size D[3, 2] [2, 12]: 0.14 microns
Average particle size D[4, 3] [2, 12]: 0.40 microns
Genistein particle size D (v, 0.1) [2, 12]: 0.07 microns
Genistein particle size D (v, 0.5) [2, 12]: 0.16 microns
Genistein particle size D (v, 0.9) [2, 12]: 0.91 microns
Average particle size D[3, 2] [2, 13]: 23.1 microns
Average particle size D[4, 3] [2, 13]: 48.5 microns
Genistein particle size D (v, 0.1) [2, 13]: 17.1 microns
Genistein particle size D (v, 0.5) [2, 13]: 41.9 microns
Genistein particle size D (v, 0.9) [2, 13]: 91.0 microns
Average particle size D[3, 2] [2, 14]: 0.13 microns
Average particle size D[4, 3] [2, 14]: 0.83 microns
Genistein particle size D (v, 0.1) [2, 14]: 0.07 microns
Genistein particle size D (v, 0.5) [2, 14]: 0.15 microns
Genistein particle size D (v, 0.9) [2, 14]: 2.62 microns
Average particle size D[3, 2] [2, 15]: 23.1 microns
Average particle size D[4, 3] [2, 15]: 48.5 microns
Genistein particle size D (v, 0.1) [2, 15]: 17.1 microns
Genistein particle size D (v, 0.5) [2, 15]: 41.9 microns
Genistein particle size D (v, 0.9) [2, 15]: 91.0 microns
Average particle size D[3, 2] [2, 16]: 0.14 microns
Average particle size D[4, 3] [2, 16]: 0.41 microns
Genistein particle size D (v, 0.1) [2, 16]: 0.07 microns
Genistein particle size D (v, 0.5) [2, 16]: 0.16 microns
Genistein particle size D (v, 0.9) [2, 16]: 0.93 microns
Average particle size D[3, 2] [2, 17]: 0.13 microns
Average particle size D[4, 3] [2, 17]: 0.41 microns
Genistein particle size D (v, 0.1) [2, 17]: 0.07 microns
Genistein particle size D (v, 0.5) [2, 17]: 0.15 microns
Genistein particle size D (v, 0.9) [2, 17]: 0.93 microns
Average particle size D[3,2] (surface mean diameter) [2, 18]: 0.14 microns
Average particle size D[4, 3] [2, 18]: 0.42 microns
Genistein particle size D (v, 0.1) [2, 18]: 0.07 microns
Genistein particle size D (v, 0.5) [2, 18]: 0.16 microns
Genistein particle size D (v, 0.9) [2, 18]: 0.92 microns
Average particle size D[3,2] (surface mean diameter) [2, 19]: 23.1 microns
Average particle size D[4, 3] [2, 19]: 48.5 microns
Genistein particle size D (v, 0.1) [2, 19]: 17.8 microns
Genistein particle size D (v, 0.5) [2, 19]: 41.4 microns
Genistein particle size D (v, 0.9) [2, 19]: 90.2 microns
Average particle size D[4, 3] [2, 20]: 0.23 microns
Genistein particle size D (v, 0.1) [2, 20]: 0.07 microns
Genistein particle size D (v, 0.5) [2, 20]: 0.16 microns
Genistein particle size D (v, 0.9) [2, 20]: 0.45 microns
Average particle size D[4, 3] [2, 21]: 48.5 microns
Genistein particle size D (v, 0.1) [2, 21]: 17.8 microns
Genistein particle size D (v, 0.5) [2, 21]: 41.4 microns
Genistein particle size D (v, 0.9) [2, 21]: 90.2 microns
Average particle size D[4, 3] [2, 22]: 48.5 microns
Genistein particle size D (v, 0.1) [2, 22]: 17.8 microns
Genistein particle size D (v, 0.5) [2, 22]: 41.4 microns
Genistein particle size D (v, 0.9) [2, 22]: 90.2 microns
Average particle size D[4, 3] [2, 23]: 48.5 microns
Genistein particle size D (v, 0.1) [2, 23]: 17.8 microns
Genistein particle size D (v, 0.5) [2, 23]: 41.4 microns
Genistein particle size D (v, 0.9) [2, 23]: 90.2 microns
Average particle size D[4, 3] [2, 24]: 0.53 microns
Genistein particle size D (v, 0.1) [2, 24]: 0.07 microns
Genistein particle size D (v, 0.5) [2, 24]: 0.18 microns
Genistein particle size D (v, 0.9) [2, 24]: 1.38 microns
Average particle size D[4, 3] [2, 25]: 0.65 microns
Genistein particle size D (v, 0.1) [2, 25]: 0.08 microns
Genistein particle size D (v, 0.5) [2, 25]: 0.19 microns
Genistein particle size D (v, 0.9) [2, 25]: 1.84 microns
